Source: publication PMC4501038 (RSC advances, 2015)
Structures can show the parent of a compound that is named as a salt. One block for each compound: values may come before it. Non-standard residues stand in square brackets, D forms with d. pGlu = O=C1CC[C@@H](C(=O)O)N1

How the values were obtained:
TRH-DE = details: read-out: Ki, inhibition of TRH-DE; cited from earlier work
central TRH receptors = details: read-out: Ki, binding to central TRH receptors; cited from earlier work
rodents = details: cited from earlier work
scopolamine-treated mice [1] = assay: Scopolamine-induced memory impairment, Morris water maze; type: in vivo; details: for working memory: escape latencies trial 1 vs trial 2: each day for four days, 6c 3.9 mg/kg, scopolamine 1 mg/kg
anesthetized mice [2] = assay: Cardiovascular parameters; details: noradrenaline, dose not given
scopolamine-treated mice [3] = assay: Scopolamine-induced memory impairment, passive avoidance test; type: in vivo; details: rivastigmine (positive control) plus scopolamine
Swiss albino mice = assay: Reversal of pentobarbital-induced sleeping time; type: in vivo; details: 10 μmol/kg i.v.
anesthetized mice [4] = assay: Cerebral blood flow; type: in vivo; details: 6c 3.9 mg/kg, % change from basal
mice = assay: Functional observation battery; details: mouse, in vivo

Compound: [pGlu]NP[dY][dW]-NH2
Ki (TRH-DE): 151 nM
Ki (central TRH receptors): 6.8 nM

Compound: [1-methyl-(S)-4,5-dihydroorotyl)]-L-His-L-ProNH2 [TAL]
doses producing CNS effects, times lower than TRH (rodents): about 100 times
duration of antagonistic action on PB-induced sleep relative to TRH (rodents): eight times longer

Compound: CN1[C@@H]2C[C@@H](OC(=O)[C@H](CO)c3ccccc3)C[C@H]1[C@@H]1O[C@@H]12 [scopolamine, scopolamine hydrobromide]
area under curve of the escape latencies in four-day trial (scopolamine-treated mice [1]; dose study, scopolamine (1 mg/kg i.p.) alone): 337.5 ± 12.2 s
working memory: escape latencies trial 1 vs trial 2 (scopolamine-treated mice [1]): did not show any significant difference between two trials

Compound: NC[C@H](O)c1ccc(O)c(O)c1 [Noradrenaline]
Δ Heart Rate (anesthetized mice [2]): 56.6±9 BPM
Δ MAP (anesthetized mice [2]): 42.8±2.2 mm Hg
Δ mean Diastolic BP (anesthetized mice [2]): 37.2±3.2 mm Hg
Δ mean Systolic BP (anesthetized mice [2]): 54.1±1.7 mm Hg

Compound: CCN(C)C(=O)Oc1cccc([C@H](C)N(C)C)c1 [rivastigmine]
working memory: escape latencies trial 1 vs trial 2 (scopolamine-treated mice [1]): significant effect on day 1, 2 and 3
step through latency (retention) (scopolamine-treated mice [3]): 235.1 ± 27.6 s

FOB arousal (mice): moderate arousal
FOB gait and posture (mice): normal till three hours
FOB posture (mice): normal posture
FOB respiration (mice): do not affect normal respiration
FOB spontaneous activity in open field (mice): do not increase spontaneous activity
Compound: NC(=O)[C@@H]1CCCN1C(=O)[C@H](Cc1cnc[nH]1)NC(=O)[C@@H]1CCC(=O)N1 [TRH, pGlu-His-ProNH2]
Sleeping duration (Mean± SEM) (Swiss albino mice; pentobarbital 50 mg/kg i.p. 10 min later, mice): 53.9 ± 3.7 min
(%) Reduction in time (Swiss albino mice; relative to control, pentobarbital 50 mg/kg i.p.): 42.5%
working memory: escape latencies trial 1 vs trial 2 (scopolamine-treated mice [1]): significantly decrease in trial 2 compared to trial 1 on all four days
increase in cerebral blood flow (anesthetized mice [4]): 93.4±2.9%
